Patent EP3315495A1, “N,N' -[…], N,N' -DIAR[…] N,N' -DIARY[…] FOR USE IN TREATMENT AND PREVENTION OF INFLAMMATORY DISEASE” (Universität Innsbruck, priority 2016, dated 2018)
Like-named read-outs stand apart in the source and are kept apart here. Marks after values point to notes of the source that are not given here.

What was measured:
[1] = system: 5-LOX product formation in PMNL; assay: 5-LOX product formation in PMNL stimulated with A23187 (cell-based); set-up: species or system human; conditions: for inhibition at 10 µM: read-out: Effect on 5-LOX product formation in PMNL, % inhibition
Description: Briefly, first a cell-based assay allows to determine the inhibition of the 5-LOX product biosynthesis. The cell suspension contained human neutrophils (PMNL) or monocytes, wherein the cells were isolated from buffy coats obtained from healthy donors pooled by gender. An aliquot cell suspension was incubated with the candidate compound for 15 min at 37 °C. The cells are treated with calcium ionophore A23187 to stimulate 5-LOX product formation for further 10 min (37 °C), optionally in presence of various concentrations of AA. The reaction was stopped with 1 mL methanol on ice.
(§1) In both assays, product quantification was conducted with RP-HPLC and UV detection after solid phase extraction and addition of 200 ng prostaglandin B1 as internal standard.

isolated 5-LOX = target: T1, isolated 5-LOX (Homo sapiens, UniProt P09917); assay: FLAP-independent cell-free enzymatic assay with isolated recombinant 5-LOX; assay type: biochemical; conditions: for inhibition at 10 µM: read-out: Effect on isolated 5-LOX, % inhibition
T1 construct: made in house; host or cells: E. coli
T1 sequence (P09917 1-674): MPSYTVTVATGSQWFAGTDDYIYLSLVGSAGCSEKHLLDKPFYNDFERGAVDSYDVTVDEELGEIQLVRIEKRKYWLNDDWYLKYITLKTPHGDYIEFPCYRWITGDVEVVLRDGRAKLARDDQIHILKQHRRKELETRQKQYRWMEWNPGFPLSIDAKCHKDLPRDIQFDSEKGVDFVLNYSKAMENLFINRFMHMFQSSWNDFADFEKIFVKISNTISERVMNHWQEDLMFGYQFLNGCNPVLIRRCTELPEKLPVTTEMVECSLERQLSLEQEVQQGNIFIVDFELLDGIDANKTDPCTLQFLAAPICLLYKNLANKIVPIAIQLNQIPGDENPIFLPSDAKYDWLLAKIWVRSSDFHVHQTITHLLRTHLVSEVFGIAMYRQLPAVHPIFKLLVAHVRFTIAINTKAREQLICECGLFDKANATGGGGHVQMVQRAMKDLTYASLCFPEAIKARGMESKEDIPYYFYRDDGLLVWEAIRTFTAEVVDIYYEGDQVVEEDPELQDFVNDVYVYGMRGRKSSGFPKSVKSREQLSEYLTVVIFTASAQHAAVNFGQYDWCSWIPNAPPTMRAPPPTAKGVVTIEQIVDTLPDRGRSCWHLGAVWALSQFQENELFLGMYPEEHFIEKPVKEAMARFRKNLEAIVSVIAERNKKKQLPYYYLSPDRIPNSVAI
Description: as §1

sEH [2] = target: T2, sEH (Homo sapiens, UniProt P34913); assay: biochemical; conditions: read-out: Effect on sEH activity, % inhibition
T2 sequence (P34913 1-555): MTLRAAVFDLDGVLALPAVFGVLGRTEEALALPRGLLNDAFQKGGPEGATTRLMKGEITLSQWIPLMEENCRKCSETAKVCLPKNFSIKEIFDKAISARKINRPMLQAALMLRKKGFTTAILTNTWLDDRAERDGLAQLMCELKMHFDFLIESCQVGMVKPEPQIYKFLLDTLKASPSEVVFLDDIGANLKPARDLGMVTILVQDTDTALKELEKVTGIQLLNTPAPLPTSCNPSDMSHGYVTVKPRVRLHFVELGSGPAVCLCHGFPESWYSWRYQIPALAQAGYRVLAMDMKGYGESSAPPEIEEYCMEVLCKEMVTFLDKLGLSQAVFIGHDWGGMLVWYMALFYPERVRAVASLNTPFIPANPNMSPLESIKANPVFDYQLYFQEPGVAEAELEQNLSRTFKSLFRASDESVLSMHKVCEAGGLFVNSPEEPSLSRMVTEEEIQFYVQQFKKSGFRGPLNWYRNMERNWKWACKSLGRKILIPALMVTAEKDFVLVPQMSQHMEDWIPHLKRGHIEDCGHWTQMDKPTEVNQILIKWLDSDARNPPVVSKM
Description: (§3) In brief, sEH was expressed in transfected Sf9-cells. Isolation of sEH from the cell pellet was conducted with a benzylthiosepharose matrix. […] The reaction was stopped with ZnSO4 (0.2 M) after 60 min incubation. […] Inhibitors were tested for self fluorescence. Positive controls were AUDA (12-(3-adamantan-1-yl-ureido)dodecanacid) and DCU (N,N'-dicyclohexylurea) at 10 µM.

FLAP = target: T3, FLAP (Homo sapiens, UniProt P20292); conditions: active = inhibition of product formation in cells without 5-LOX activity in the cell-free assay
T3 sequence (P20292 1-161): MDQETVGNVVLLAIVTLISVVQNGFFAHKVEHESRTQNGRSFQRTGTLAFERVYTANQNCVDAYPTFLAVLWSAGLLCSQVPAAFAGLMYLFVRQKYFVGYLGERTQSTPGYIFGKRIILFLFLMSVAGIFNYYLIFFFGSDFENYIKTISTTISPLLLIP
Description: The enzyme was preincubated for 15 min with the potential inhibitor on ice and subsequently exposed to 2 mM CaCl2 and 20 µM AA for 10 min at 37°C.
Effect on 5-LOX product formation and sEH activity is determined as described above. In case of observed effect on 5-LOX product formation in the cellular assay, 5-LOX activity was investigated with isolated 5-LOX.

sEH [3] = target: T2, sEH; conditions: at 0.1 µM
Description: as §3

12-LOX = assay type: cell-based; conditions: neutrophils, exogenous AA 10, 30 or 60 µM
From the text: (§2) […]. […] This could be beneficial as the 15-LOX product 15-HETE is anti-inflammatory.

15-LOX = assay type: cell-based; conditions: neutrophils
From the text: as §2

COX-1 = COX-1 (Homo sapiens, UniProt P23219); assay: COX-1 activity; assay type: biochemical; conditions: concentrations up to 10 µM
COX-1, sequence (P23219 24-599): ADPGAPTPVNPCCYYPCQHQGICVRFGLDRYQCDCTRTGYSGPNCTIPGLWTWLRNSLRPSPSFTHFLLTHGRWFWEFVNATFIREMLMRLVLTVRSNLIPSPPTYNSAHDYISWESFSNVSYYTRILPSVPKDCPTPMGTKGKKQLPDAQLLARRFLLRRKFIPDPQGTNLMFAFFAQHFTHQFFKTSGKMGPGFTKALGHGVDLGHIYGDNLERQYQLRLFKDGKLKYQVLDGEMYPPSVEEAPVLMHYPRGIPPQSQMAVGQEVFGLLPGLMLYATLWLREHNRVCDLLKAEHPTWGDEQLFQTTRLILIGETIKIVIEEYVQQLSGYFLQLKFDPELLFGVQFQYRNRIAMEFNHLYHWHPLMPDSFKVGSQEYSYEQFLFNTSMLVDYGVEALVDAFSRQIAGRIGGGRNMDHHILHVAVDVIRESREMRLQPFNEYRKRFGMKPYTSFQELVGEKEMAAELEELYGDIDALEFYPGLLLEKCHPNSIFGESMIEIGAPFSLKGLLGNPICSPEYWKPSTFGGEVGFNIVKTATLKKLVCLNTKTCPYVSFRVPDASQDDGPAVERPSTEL

COX-2 = target: T4, COX-2 (Homo sapiens, UniProt P35354); assay: COX-2 activity; assay type: biochemical; conditions: concentrations up to 10 µM
T4 sequence (P35354 18-604): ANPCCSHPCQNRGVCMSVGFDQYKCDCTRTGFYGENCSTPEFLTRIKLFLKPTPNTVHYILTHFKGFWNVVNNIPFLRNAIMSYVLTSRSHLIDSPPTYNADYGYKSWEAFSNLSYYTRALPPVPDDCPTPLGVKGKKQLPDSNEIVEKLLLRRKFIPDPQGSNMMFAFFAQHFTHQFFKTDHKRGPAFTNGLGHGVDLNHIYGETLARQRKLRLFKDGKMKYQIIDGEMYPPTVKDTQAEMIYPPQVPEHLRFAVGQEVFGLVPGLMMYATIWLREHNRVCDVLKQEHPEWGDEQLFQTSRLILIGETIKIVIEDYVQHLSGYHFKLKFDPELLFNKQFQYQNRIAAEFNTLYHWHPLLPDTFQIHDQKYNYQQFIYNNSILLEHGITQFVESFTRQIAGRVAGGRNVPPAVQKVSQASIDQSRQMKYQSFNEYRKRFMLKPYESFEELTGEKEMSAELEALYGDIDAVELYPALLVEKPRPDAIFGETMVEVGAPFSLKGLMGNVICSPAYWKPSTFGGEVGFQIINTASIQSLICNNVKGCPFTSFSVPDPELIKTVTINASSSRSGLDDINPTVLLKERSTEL

mPGES = mPGES activity; assay type: biochemical; conditions: concentrations up to 10 µM
[4] = system: leukotriene mediated peritonitis; assay: Zymosan-induced peritonitis model in mice; assay type: in vivo, CD1 male mice; conditions: intraperitoneal, 30 min prior to zymosan
Description: Compound I-12 was evaluated in vivo in a peritonitis model in mice. The experimental protocols were approved by the Animal Care Committee of the University of Naples Federico II, in compliance with Italian regulations on protection of animals used for experimental and other scientific purpose (Ministerial Decree 116/92) as well as with the European Economic Community regulations (Official Journal of E.C. L 358/1 12/18/1986); protocol number: 2014/0018760 27th February 2014. CD1 male mice with an age of six to eight weeks were investigated. The leukotriene mediated peritonitis is induced by injection of 1 mg zymosan in 50 µl saline solution. 30 min prior to induction, the candidate compound was applied as intraperitoneal injection in different concentrations as well as DMSO as negative control and positive controls (MK886, zileuton). Results are given in Table 3, wherein […] and LTB 4 levels are measured as well as vascular permeability (VP) and the cell recruitment in the peritoneal cavity (Cell Rec). Table 3: Results from an in vivo study with a mouse peritonitis model
In Table 3, values in percent indicate the percent inhibition in respect to the vehicle control. Statistical significance is determined via ANOVA Bonferroni, wherein * indicates p<0.05; ** indicates p<0.01; *** indicates p<0.001 vs. vehicle. N indicates the number of investigated mice.

HEK cells with FLAP = assay: 5-LOX product formation in HEK cells that express FLAP
[5] = Homo sapiens, PMNL, read-out: Effect on 5-LOX product formation in PMNL, IC50

S=C(Nc1ccc(OCc2nc3ccccc3[nH]2)cc1)Nc1ccc(Cl)c(Cl)c1 [EZ21, N-[4-(1-H-Benzimidazol-2-ylmethoxy)-phenyl]-N'-(3,4-dichlorophenyl)-thiourea]
IC50 [1, 5]: 690 nM
inhibition at 10 µM (isolated 5-LOX; at 10 µM): 87%
inhibition at 10 µM (sEH [2]): ~54%

CC(C)(C)OC(=O)n1c(COc2ccc(NC(=O)Nc3ccc(Cl)c(Cl)c3)cc2)nc2ccccc21 [EZ18, N-[4-(1-tert.-Butoxycarbonyl-1H-benzimidazol-2-ylmethoxy)-phenyl]-N'-(3,4-dichlorophenyl)-urea]
inhibition at 10 µM ([1]; Homo sapiens, PMNL, at 10 µM): ~40%
inhibition at 10 µM (isolated 5-LOX; at 10 µM): ~22%
inhibition at 0.1 µM (sEH [2]): ~67%

CC(C)(C)OC(=O)n1c(COc2ccc(NC(=S)Nc3ccc(Cl)c(Cl)c3)cc2)nc2ccccc21 [EZ20, N-[4-(1-tert.-Butoxycarbonyl-1H-benzimidazol-2-ylmethoxy)-phenyl]-N'-(3,4-dichlorophenyl)-thiourea]
inhibition at 10 µM ([1]; Homo sapiens, PMNL): -65%
inhibition at 10 µM (isolated 5-LOX): ~39%
Effect on FLAP activity (FLAP): inactive
inhibition at 0.1 µM (sEH [2]): ~39%

Cc1cc(OCc2nc3ccccc3[nH]2)ccc1NC(=S)Nc1ccc(Cl)c(Cl)c1 [EZ17, N-[4-(1H-Benzimidazol-2ylmethoxy)-2-methylphenyl]-N'-(3,4-dichlorophenyl)-thiourea]
IC50 [1, 5]: 820 nM
inhibition at 10 µM (isolated 5-LOX; at 10 µM): 65%
Effect on FLAP activity (FLAP): active
inhibition at 10 µM (sEH [2]): ~64%

O=C(Nc1ccc(OCc2nc3ccccc3[nH]2)cc1)Nc1ccc(Cl)c(Cl)c1 [EZ19, N-[4-(1-H-Benzimidazol-2-ylmethoxy)-phenyl]-N'-(3,4-dichlorophenyl)-urea]
IC50 ([1]; read-out: Effect on 5-LOX product formation in PMNL, IC50): 550 nM
Effect on isolated 5-LOX, % inhibition (isolated 5-LOX; at 10 µM): ∼33 % inhibitio n at 10 µM
Effect on FLAP activity (FLAP): active
Effect on sEH activity, % inhibition (sEH [3]): ∼52 % inhibition at 0.1 µM

Cc1cc(OCc2nc3ccccc3s2)ccc1NC(=O)Nc1ccc(Cl)c(Cl)c1 [Compound I-12, N-[4-(2-benzothiazolylmethoxy)-2-methylphenyl]-N'-(3,4-dichlorophenyl)-urea]
IC50 ([1]; Homo sapiens, PMNL, male PMNL cells, Exogenous AA 3 µM, read-out: IC50 values for 5-LOX product formation): 380 nM
IC50 ([1]; Homo sapiens, PMNL, male PMNL cells, Exogenous AA 10 µM, read-out: IC50 values for 5-LOX product formation): 1600 nM
IC50 ([1]; Homo sapiens, PMNL, male PMNL cells, Exogenous AA 30 µM, read-out: IC50 values for 5-LOX product formation): 2100 nM
IC50 ([1]; Homo sapiens, PMNL, male PMNL cells, Exogenous AA 60 µM, read-out: IC50 values for 5-LOX product formation): 9100 nM
IC50 [1, 5]: 240 nM
product formation of 12-LOX (12-LOX): did not inhibit
product formation of 15-LOX (15-HETE) (15-LOX; 10 µM AA): increase of the product formation
product formation of 15-LOX (15-LOX; exogenous AA 10, 30 or 60 µM): did not inhibit
COX-1 activity (COX-1): not affected
COX-2 activity (COX-2): not affected
mPGES (mPGES): not affected
Cell Rec (cell recruitment in the peritoneal cavity) ([4]; 1 mg): 5.93±0.321 10^6/ml
Cell Rec, percent inhibition in respect to the vehicle control ([4]; 1 mg): 22%
LTB4 ([4]; 1 mg): 280 ± 42.8 pg/mL
LTB4, percent inhibition in respect to the vehicle control ([4]; 1 mg): 59%**
LTC4 ([4]; 1 mg): 26.0 ± 9.47 ng/mL
LTC4, percent inhibition in respect to the vehicle control ([4]; 1 mg): 70%***
Cell Rec (cell recruitment in the peritoneal cavity) ([4]; 3 mg): 4.4±0.509 10^6/ml
Cell Rec, percent inhibition in respect to the vehicle control ([4]; 3 mg): 42%***
LTB4 ([4]; 3 mg): 345 ± 69.2 pg/mL
LTB4, percent inhibition in respect to the vehicle control ([4]; 3 mg): 50%*
LTC4 ([4]; 3 mg): 30.5 ± 10.3 ng/mL
LTC4, percent inhibition in respect to the vehicle control ([4]; 3 mg): 66%***
Cell Rec (cell recruitment in the peritoneal cavity) ([4]; 10 mg): 3.36±0.439 10^6/ml
Cell Rec, percent inhibition in respect to the vehicle control ([4]; 10 mg): 56%***
LTB4 ([4]; 10 mg): 193 ± 34.4 pg/mL
LTB4, percent inhibition in respect to the vehicle control ([4]; 10 mg): 72%***
LTC4 ([4]; 10 mg): 25.8 ± 2.66 ng/mL
LTC4, percent inhibition in respect to the vehicle control ([4]; 10 mg): 70%***
VP (vascular permeability) ([4]; 10 mg): 0.347±0.09 abs 610 nm
VP, percent inhibition in respect to the vehicle control ([4]; 10 mg): 38%
effect on 5-LOX product formation (HEK cells without FLAP): nearly no effect
effect on 5-LOX product formation (HEK cells with FLAP): inhibits the product formation

Cc1cc(OCc2nc3ccccc3n2C(=O)OC(C)(C)C)ccc1NC(=S)Nc1ccc(Cl)c(Cl)c1 [EZ15, N-[4-(1-tert.-Butoxycarbonyl-1H-benzimidazol-2-ylmethoxy)-2-methylphenyl]-N'-(3,4-dichlorophenyl)-thiourea]
inhibition at 10 µM ([1]; Homo sapiens, PMNL, at 10 µM): ~39%
inhibition at 10 µM (isolated 5-LOX; at 10 µM): ~33%
Effect on FLAP activity (FLAP): inactive
inhibition at 10 µM (sEH [2]): ~66%
